Literature values as cited in US20080089861A1, “Combination therapy for treatment of demyelinating conditions” (priority 2006, published 2008).
“Also recorded” adds a separate entry of the source.

Conditions: human

Compound: CC12CC3CC(C)(C1)CC(N)(C3)C2 [Memantine, 1-amino-3,5-dimethyladamantane]
- Dose Dependent Tox: Dose escalation; also recorded: hallucination
